What all share (assay type): biochemical
Assay [1] concerns the target T1, MMP-2 (Homo sapiens, UniProt P08253).
T1 construct: purchased Abchem (so in the source)
T1 sequence (P08253 110-660): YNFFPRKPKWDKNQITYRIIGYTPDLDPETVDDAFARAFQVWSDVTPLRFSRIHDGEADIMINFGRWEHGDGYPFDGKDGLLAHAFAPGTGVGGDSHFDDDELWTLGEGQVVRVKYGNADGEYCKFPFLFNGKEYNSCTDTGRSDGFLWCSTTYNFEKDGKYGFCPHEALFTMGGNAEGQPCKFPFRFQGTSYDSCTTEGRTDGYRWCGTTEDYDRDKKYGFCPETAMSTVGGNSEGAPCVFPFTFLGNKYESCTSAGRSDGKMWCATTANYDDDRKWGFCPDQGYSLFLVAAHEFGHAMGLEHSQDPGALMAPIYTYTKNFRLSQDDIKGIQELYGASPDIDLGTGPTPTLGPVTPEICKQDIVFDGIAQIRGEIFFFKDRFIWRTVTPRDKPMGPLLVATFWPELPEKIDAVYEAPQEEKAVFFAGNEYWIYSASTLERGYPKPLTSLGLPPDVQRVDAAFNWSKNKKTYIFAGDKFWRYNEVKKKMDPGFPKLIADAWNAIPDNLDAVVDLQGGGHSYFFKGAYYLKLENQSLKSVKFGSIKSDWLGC
Briefly: MMP2 Inhibitor Screening Assay Kit (ab139446), colorimetric thiopeptide substrate, OD412. To be noted: for inhibition at 0.5 µM / remaining activity at 0.5 µM: T-23~34 at 0.5 uM; for inhibition at 0.5 µM / inhibition at 10 µM: read-out: MMP-2 (%) (inhibitory efficacy, high concentration); for remaining activity at 0.5 µM / remaining activity at 10 µM: remaining enzyme activity, read-out: MMP-2 (%) (enzyme activity, high concentration); for inhibition at 10 µM / remaining activity at 10 µM: T-05~20 at 10 uM.

The target of assay [2] is T1, MMP-2. The description is as above. The following applies: compound at 50 nM; for remaining activity at 0.05 µM: remaining enzyme activity, untreated group = 100%, n=2. On the procedure:
Enzyme activity (%) at the same concentration was compared with treatment with 0.5 µM MMP-1 activity and 50 nM MMP-2 and MMP-9 activity (n=2). Here, enzyme activity (%) refers to the enzyme activity (%) of the experimental group when the untreated group is considered to have 100% enzyme activity. To evaluate the effect of the new compound on the enzyme activity, the color change was measured by following the provided protocol using a kit sold by Abchem as follows. […] Therefore, the change in OD412 level (OD value) per minute was measured and the value was obtained according to the enzyme activity calculation formula below. […] (ε=13,600 M^-1cm^-1 above pH 6.0) New compound enzyme activity(%) = (Vnew compound/Vuntreated group)*100 [formula] V = change in OD value per minute

For assay [3], the target named is T2, MMP-9 (Homo sapiens, UniProt P14780).
T2 construct: purchased Abchem (so in the source)
T2 sequence (P14780 94-707): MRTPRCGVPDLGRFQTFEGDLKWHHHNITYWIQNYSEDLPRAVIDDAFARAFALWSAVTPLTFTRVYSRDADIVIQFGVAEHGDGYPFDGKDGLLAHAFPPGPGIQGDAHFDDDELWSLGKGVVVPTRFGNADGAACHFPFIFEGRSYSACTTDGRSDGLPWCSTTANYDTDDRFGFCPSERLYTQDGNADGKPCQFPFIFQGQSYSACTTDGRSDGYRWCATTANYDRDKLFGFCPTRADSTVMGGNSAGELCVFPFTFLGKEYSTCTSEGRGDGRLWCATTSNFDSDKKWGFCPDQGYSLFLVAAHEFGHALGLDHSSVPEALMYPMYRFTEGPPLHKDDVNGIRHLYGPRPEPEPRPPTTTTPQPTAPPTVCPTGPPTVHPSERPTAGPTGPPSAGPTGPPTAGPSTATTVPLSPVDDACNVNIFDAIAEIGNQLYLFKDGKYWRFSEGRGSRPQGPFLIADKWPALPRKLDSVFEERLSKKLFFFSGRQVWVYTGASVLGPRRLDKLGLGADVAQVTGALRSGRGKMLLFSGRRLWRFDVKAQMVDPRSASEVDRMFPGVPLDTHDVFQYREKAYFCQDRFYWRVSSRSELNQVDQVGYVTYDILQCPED
Briefly: MMP9 Inhibitor Screening Assay Kit (ab139448), colorimetric thiopeptide substrate, OD412. The following applies: compound at 50 nM; for remaining activity at 0.05 µM: remaining enzyme activity, untreated group = 100%, n=2. Here is the method:
Enzyme activity (%) at the same concentration was compared with treatment with 0.5 µM MMP-1 activity and 50 nM MMP-2 and MMP-9 activity (n=2). Here, enzyme activity (%) refers to the enzyme activity (%) of the experimental group when the untreated group is considered to have 100% enzyme activity. To evaluate the effect of the new compound on the enzyme activity, the color change was measured by following the provided protocol using a kit sold by Abchem as follows. Enzyme activity was obtained by comparing absorbance per minute with the untreated group. • MMP1 Inhibitor Screening Assay Kit (ab139443) • MMP2 Inhibitor Screening Assay Kit (ab139446) • MMP9 Inhibitor Screening Assay Kit (ab139448) As MMP activity increases, the substrate is decomposed and the OD412 level increases. Therefore, the change in OD412 level (OD value) per minute was measured and the value was obtained according to the enzyme activity calculation formula below. Here, OD412 means optical density or absorbance at 412 nm. • Thiopeptide (Ac-PLG-[2-mercapto-4-methyl-pentanoyl]-LG-OC2H5) as a chromogenic substrate. • The MMP cleavage site peptide bond was replaced by the thioester bond of the thiopeptide. • Hydrolysis of this bond by MMP generates a sulfhydryl group, which reacts with DTNB [5,5'-dithiobis(2-nitrobenzoic acid), Ellman's reagent] to form 2-nitro-5-thiobenzoic acid. , which can be measured by its absorbance at 412 nm. (ε=13,600 M^-1cm^-1 above pH 6.0) New compound enzyme activity(%) = (Vnew compound/Vuntreated group)*100 [formula] V = change in OD value per minute

Assay [4] deals with T3, MMP-1 (Homo sapiens, UniProt P03956).
T3 construct: purchased Abchem (so in the source)
T3 sequence (P03956 100-269 limits assumed): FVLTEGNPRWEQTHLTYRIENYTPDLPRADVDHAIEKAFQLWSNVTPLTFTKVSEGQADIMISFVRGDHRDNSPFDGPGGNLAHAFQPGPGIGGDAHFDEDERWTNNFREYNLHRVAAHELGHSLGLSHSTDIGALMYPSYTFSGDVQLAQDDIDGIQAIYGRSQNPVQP
Briefly: MMP1 Inhibitor Screening Assay Kit (ab139443), colorimetric thiopeptide substrate, OD412. The following applies: for inhibition at 5 µM / remaining activity at 5 µM: T-23~34 at 5 uM; for inhibition at 5 µM / inhibition at 10 µM: read-out: MMP-1 (%) (inhibitory efficacy, high concentration); for remaining activity at 0.5 µM / remaining activity at 5 µM / remaining activity at 10 µM: remaining enzyme activity; for remaining activity at 0.5 µM: untreated group = 100%, n=2; for remaining activity at 5 µM / remaining activity at 10 µM: read-out: MMP-1 (%) (enzyme activity, high concentration); for inhibition at 10 µM / remaining activity at 10 µM: T-05~20 at 10 uM. On the procedure: Enzyme activity (%) at the same concentration was compared with treatment with 0.5 µM MMP-1 activity and 50 nM MMP-2 and MMP-9 activity (n=2). Here, enzyme activity (%) refers to the enzyme activity (%) of the experimental group when the untreated group is considered to have 100% enzyme activity.
To evaluate the effect of the new compound on the enzyme activity, the color change was measured by following the provided protocol using a kit sold by Abchem as follows.
As MMP activity increases, the substrate is decomposed and the OD412 level increases. Therefore, the change in OD412 level (OD value) per minute was measured and the value was obtained according to the enzyme activity calculation formula below. […] (ε=13,600 M^-1cm^-1 above pH 6.0)
New compound enzyme activity(%) = (Vnew compound/Vuntreated group)*100 [formula] V = change in OD value per minute

In assay [5] the target is T2, MMP-9. Description: MMP9 Inhibitor Screening Assay Kit (ab139448), colorimetric thiopeptide substrate, OD412. The following applies: T-23~34 at 0.5 uM; for inhibition at 0.5 µM: read-out: MMP-9 (%) (inhibitory efficacy, high concentration); for remaining activity at 0.5 µM: remaining enzyme activity, read-out: MMP-9 (%) (enzyme activity, high concentration).

For `CC(=O)c1ccc(S(=O)(=O)N2CCCC2C(=O)NO)cc1` (centres unmarked) [T-34, 1-((4-acetylphenyl)sulfonyl)-N-hydroxypyrrolidine-2-carboxamide], the inhibition at 0.5 µM in assay [1] came to 37.8%; in assay [5] it was 30.1%. The figures for the remaining activity at 0.5 µM in assay [1], in assay [4] (compound at 0.5 uM) and in assay [5] were 62.2%, 100% and 69.9%, respectively. The remaining activity at 0.05 µM in assay [2] and in assay [3] was 100% each time. For the same compound, the inhibition at 5 µM in assay [4] (inhibition) is 58.2%. Besides, the remaining activity at 5 µM in assay [4] amounted to 41.8%.

As to `CC(=O)Nc1ccc(S(=O)(=O)N2CCCCC2C(=O)NO)cc1` (centres unmarked) [T-25, 1-((4-acetamidophenyl)sulfonyl)-N-hydroxypiperidine-2-carboxamide], the inhibition at 0.5 µM in assay [1] was 38.3%; in assay [4] (inhibition, compound at 0.5 uM, read-out: MMP-1 (%) at 0.5 uM (inhibitory activity)), 0%; in assay [5], 20.6%. The remaining activity at 0.5 µM in assay [1] came out at 61.7%; in assay [4] (compound at 0.5 uM) it was 100%; in assay [5] it was 79.4%. Moreover, the inhibition at 0.05 µM in assay [2] (inhibition, read-out: MMP-2 (%) at 50 nM (inhibitory activity)) is 0%. The remaining activity at 0.05 µM in assay [2] and in assay [3] was 100% throughout. In addition, in assay [4] (inhibition), the inhibition at 5 µM was found to be 14.2%. In assay [4], the remaining activity at 5 µM was found to be 85.8%.

Take `CC(C)(C)c1ccc(S(=O)(=O)N2CCCC2C(=O)NO)cc1` (centres unmarked) [T-28, 1-((4-(tert-butyl)phenyl)sulfonyl)-N-hydroxypyrrolidine-2-carboxamide]: the inhibition at 0.5 µM in assay [1] and in assay [5] was 0% each time. For the same compound, the remaining activity at 0.5 µM in assay [1], in assay [4] (compound at 0.5 uM) and in assay [5] was 100% throughout. Further, the remaining activity at 0.05 µM in assay [2] and in assay [3] was 100% in each case. Also, the inhibition at 5 µM in assay [4] (inhibition) was found to be 0%. The remaining activity at 5 µM in assay [4] came out at 100%.

On to `O=C(NO)C1CCCCN1S(=O)(=O)c1ccc(C23CC4CC(CC(C4)C2)C3)cc1` (centres unmarked) [T-23, 1-((4-((3r,5r,7r)-adamantan-1-yl)phenyl)sulfonyl)-N-hydroxypiperidine-2-carboxamide], for which the inhibition at 0.5 µM in assay [1] and in assay [5] was 0% in each case. In addition, the remaining activity at 0.5 µM in assay [1], in assay [4] (compound at 0.5 uM) and in assay [5] was 100% each time. For the same compound, the remaining activity at 0.05 µM in assay [2] and in assay [3] was 100% throughout. The inhibition at 5 µM in assay [4] (inhibition) amounted to 0%. Besides, in assay [4], the remaining activity at 5 µM amounted to 100%.

Take `CCCc1ccc(S(=O)(=O)N2CCCC2C(=O)NO)cc1` (centres unmarked) [T-33, N-hydroxy-1-((4-propylphenyl)sulfonyl)pyrrolidine-2-carboxamide]: the inhibition at 0.5 µM in assay [1] was found to be 26.3%; in assay [5] it was 22.2%. In addition, the remaining activity at 0.5 µM in assay [1] was determined as 73.7%; in assay [4] (compound at 0.5 uM) it was 100%; in assay [5], 77.8%. Further, the remaining activity at 0.05 µM in assay [2] is 90.5%; in assay [3], 100%. In addition, the inhibition at 0.05 µM in assay [3] (inhibition, read-out: MMP-9 (%) at 50 nM (inhibitory activity)) was determined as 0%. In assay [4] (inhibition), the inhibition at 5 µM is 26.1%. For the same compound, the remaining activity at 5 µM in assay [4] worked out at 73.9%.

As for `O=C(NO)C1CCCN1S(=O)(=O)c1ccc(C23CC4CC(CC(C4)C2)C3)cc1` (centres unmarked) [T-32, 1-((4-((3r,5r,7r)-adamantan-1-yl)phenyl)sulfonyl)-N-hydroxypyrrolidine-2-carboxamide], the inhibition at 0.5 µM was determined as 7.6% in assay [1] and 11.9% in assay [5]. Besides, the remaining activity at 0.5 µM in assay [1] turned out to be 92.4%; in assay [4] (compound at 0.5 uM) it was 100%; in assay [5], 88.1%. The remaining activity at 0.05 µM in assay [2] and in assay [3] was 100% in each case. In addition, in assay [4] (inhibition), the inhibition at 5 µM worked out at 0%. In addition, in assay [4], the remaining activity at 5 µM was found to be 100%.

Turning to `Cc1cc(C)c(S(=O)(=O)NC(Cc2ccccc2)C(=O)NO)c(C)c1` (centres unmarked) [T-10, N-hydroxy-3-phenyl-2-((2,4,6-trimethylphenyl)sulfonamido)propanamide], the inhibition at 10 µM in assay [1] stood at 15.5%; in assay [4] (inhibition), 0%. The remaining activity at 10 µM was found to be 84.5% in assay [1] and 100% in assay [4]. Further, the remaining activity at 0.05 µM was found to be 95.6% in assay [2] and 100% in assay [3]. This compound returned a remaining activity at 0.5 µM in assay [4] (compound at 0.5 uM) of 100%.

In the case of `O=C(NO)C(Cc1ccccc1)NS(=O)(=O)c1ccc2ccccc2c1` (centres unmarked) [T-11, N-hydroxy-2-(naphthalene-2-sulfonamido)-3-phenylpropanamide], the results for the inhibition at 10 µM in assay [1] and in assay [4] (inhibition) were 93.8% and 42.9%, respectively. Further, the remaining activity at 10 µM in assay [1] came to 6.2%; in assay [4], 57.1%. The remaining activity at 0.05 µM in assay [2] is 82.7%; in assay [3], 100%. The compound also showed a remaining activity at 0.5 µM in assay [4] (compound at 0.5 uM) of 100%.

The record behind these values is patent EP4692062A1, “NOVEL AMIDE-BASED COMPOUND AND COMPOSITION COMPRISING SAME” (Amorepacific Corporation, priority 2023, dated 2024).
